pIC50: −log10 of the molar value. Read-outs that look alike come from different tables or passages of the source.
What was measured:
p38-alpha (MAPK14) = p38-alpha (MAPK14) (Homo sapiens (Human), UniProt Q16539); assay: KINOMEscan scanMAX; format: binding; conditions: 2000 nM; read-out: Percent Control
TIE2 (TEK) = TIE2 (TEK) (Homo sapiens (Human), UniProt Q02763); assay: KINOMEscan scanMAX; format: binding; conditions: 2000 nM; read-out: Percent Control
CAMK2D = CAMK2D (Homo sapiens (Human), UniProt Q13557); assay: KINOMEscan scanMAX; format: binding; conditions: 2000 nM; read-out: Percent Control
TRPM6 = TRPM6 (Homo sapiens (Human), UniProt Q9BX84); assay: KINOMEscan scanMAX; format: binding; conditions: 2000 nM; read-out: Percent Control
RET = RET (Homo sapiens (Human), UniProt P07949); assay: KINOMEscan scanMAX; format: binding; conditions: 2000 nM; read-out: Percent Control
CDKL2 = CDKL2 (Homo sapiens (Human), UniProt Q92772); assay: KINOMEscan scanMAX; format: binding; conditions: 2000 nM; read-out: Percent Control
[1] = target: ABL1(Q252H)-phosphorylated (Homo sapiens (Human), UniProt P00519, Q252H); assay: KINOMEscan scanMAX; format: binding; conditions: 2000 nM; read-out: Percent Control
LRRK2 = LRRK2 (Homo sapiens (Human), UniProt Q5S007); assay: KINOMEscan scanMAX; format: binding; conditions: 2000 nM; read-out: Percent Control
PRKCD = PRKCD (Homo sapiens (Human), UniProt Q05655); assay: KINOMEscan scanMAX; format: binding; conditions: 2000 nM; read-out: Percent Control
CLK4 = CLK4 (Homo sapiens (Human), UniProt Q9HAZ1); assay: KINOMEscan scanMAX; format: binding; conditions: 2000 nM; read-out: Percent Control
PIK4CB (PI4KB) = PIK4CB (PI4KB) (Homo sapiens (Human), UniProt Q9UBF8); assay: KINOMEscan scanMAX; format: binding; conditions: 2000 nM; read-out: Percent Control
TAK1 (MAP3K7) = TAK1 (MAP3K7) (Homo sapiens (Human), UniProt O43318); assay: KINOMEscan scanMAX; format: binding; conditions: 2000 nM; read-out: Percent Control
FGFR1 = FGFR1 (Homo sapiens (Human), UniProt P11362); assay: KINOMEscan scanMAX; format: binding; conditions: 2000 nM; read-out: Percent Control
FLT3 = FLT3 (Homo sapiens (Human), UniProt P36888); assay: KINOMEscan scanMAX; format: binding; conditions: 2000 nM; read-out: Percent Control
[2] = target: PKNB(M.tuberculosis) (pknB) (Mycobacterium tuberculosis (strain ATCC 25618 / H37Rv), UniProt P9WI81); assay: KINOMEscan scanMAX; format: binding; conditions: 2000 nM; read-out: Percent Control
MAST1 = MAST1 (Homo sapiens (Human), UniProt Q9Y2H9); assay: KINOMEscan scanMAX; format: binding; conditions: 2000 nM; read-out: Percent Control
PIK3CG = PIK3CG (Homo sapiens (Human), UniProt P48736); assay: KINOMEscan scanMAX; format: binding; conditions: 2000 nM; read-out: Percent Control
[3] = target: PFCDPK1(P.falciparum) (CDPK1) (Plasmodium falciparum (isolate 3D7), UniProt P62344); assay: KINOMEscan scanMAX; format: binding; conditions: 2000 nM; read-out: Percent Control
QSK (KIAA0999) = QSK (KIAA0999) (Homo sapiens (Human), UniProt Q9Y2K2); assay: KINOMEscan scanMAX; format: binding; conditions: 2000 nM; read-out: Percent Control
ACVR2A = ACVR2A (Homo sapiens (Human), UniProt P27037); assay: KINOMEscan scanMAX; format: binding; conditions: 2000 nM; read-out: Percent Control
SIK2 = SIK2 (Homo sapiens (Human), UniProt Q9H0K1); assay: KINOMEscan scanMAX; format: binding; conditions: 2000 nM; read-out: Percent Control
[4] = test system: CDK8/19-mediated NFκB-driven transcription; assay: NFκB-dependent luciferase reporter assay in parental 293 reporter cells; format: cell-based, human; conditions: Homo sapiens
MKNK2 = MKNK2 (Homo sapiens (Human), UniProt Q9HBH9); assay: KINOMEscan scanMAX; format: binding; conditions: 2000 nM; read-out: Percent Control
CDC2L2 = CDC2L2 (Homo sapiens (Human), UniProt Q9UQ88); assay: KINOMEscan scanMAX; format: binding; conditions: 2000 nM; read-out: Percent Control
ERK1 (MAPK3) = ERK1 (MAPK3) (Homo sapiens (Human), UniProt P27361); assay: KINOMEscan scanMAX; format: binding; conditions: 2000 nM; read-out: Percent Control
EPHB4 = EPHB4 (Homo sapiens (Human), UniProt P54760); assay: KINOMEscan scanMAX; format: binding; conditions: 2000 nM; read-out: Percent Control
PKN2 = PKN2 (Homo sapiens (Human), UniProt Q16513); assay: KINOMEscan scanMAX; format: binding; conditions: 2000 nM; read-out: Percent Control
FLT3(D835V) = FLT3(D835V) (Homo sapiens (Human), UniProt P36888, D835V); assay: KINOMEscan scanMAX; format: binding; conditions: 2000 nM; read-out: Percent Control
[5] = target: JAK2(JH1domain-catalytic) (Homo sapiens (Human), UniProt O60674); assay: KINOMEscan scanMAX; format: binding; conditions: 2000 nM; read-out: Percent Control
ULK1 = ULK1 (Homo sapiens (Human), UniProt O75385); assay: KINOMEscan scanMAX; format: binding; conditions: 2000 nM; read-out: Percent Control
PRKCE = PRKCE (Homo sapiens (Human), UniProt Q02156); assay: KINOMEscan scanMAX; format: binding; conditions: 2000 nM; read-out: Percent Control
DDR1 = DDR1 (Homo sapiens (Human), UniProt Q08345); assay: KINOMEscan scanMAX; format: binding; conditions: 2000 nM; read-out: Percent Control
[6] = target: TYK2(JH1domain-catalytic) (Homo sapiens (Human), UniProt P29597); assay: KINOMEscan scanMAX; format: binding; conditions: 2000 nM; read-out: Percent Control
FLT3(N841I) = FLT3(N841I) (Homo sapiens (Human), UniProt P36888, N841I); assay: KINOMEscan scanMAX; format: binding; conditions: 2000 nM; read-out: Percent Control
PRKCQ = PRKCQ (Homo sapiens (Human), UniProt Q04759); assay: KINOMEscan scanMAX; format: binding; conditions: 2000 nM; read-out: Percent Control
MST1 (STK4) = MST1 (STK4) (Homo sapiens (Human), UniProt Q13043); assay: KINOMEscan scanMAX; format: binding; conditions: 2000 nM; read-out: Percent Control
MELK = MELK (Homo sapiens (Human), UniProt Q14680); assay: KINOMEscan scanMAX; format: binding; conditions: 2000 nM; read-out: Percent Control
[7] = Metabolic stability in human hepatocytes; format: in vitro ADME; conditions: 2 μM, 37° C.
[8] = target: RSK4(Kin.Dom.2-C-terminal) (RPS6KA6) (Homo sapiens (Human), UniProt Q9UK32); assay: KINOMEscan scanMAX; format: binding; conditions: 2000 nM; read-out: Percent Control
RSK4(Kin.Dom.2-C-terminal) (RPS6KA6), sequence (Q9UK32 426-683 limits assumed): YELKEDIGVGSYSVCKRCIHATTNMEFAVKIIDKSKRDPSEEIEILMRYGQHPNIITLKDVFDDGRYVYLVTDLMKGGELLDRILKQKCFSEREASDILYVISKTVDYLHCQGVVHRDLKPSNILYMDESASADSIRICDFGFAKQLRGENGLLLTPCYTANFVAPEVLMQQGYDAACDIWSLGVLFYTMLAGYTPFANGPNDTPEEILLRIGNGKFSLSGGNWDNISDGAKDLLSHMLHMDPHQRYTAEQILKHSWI

DDR1, sequence (Q08345 19-913): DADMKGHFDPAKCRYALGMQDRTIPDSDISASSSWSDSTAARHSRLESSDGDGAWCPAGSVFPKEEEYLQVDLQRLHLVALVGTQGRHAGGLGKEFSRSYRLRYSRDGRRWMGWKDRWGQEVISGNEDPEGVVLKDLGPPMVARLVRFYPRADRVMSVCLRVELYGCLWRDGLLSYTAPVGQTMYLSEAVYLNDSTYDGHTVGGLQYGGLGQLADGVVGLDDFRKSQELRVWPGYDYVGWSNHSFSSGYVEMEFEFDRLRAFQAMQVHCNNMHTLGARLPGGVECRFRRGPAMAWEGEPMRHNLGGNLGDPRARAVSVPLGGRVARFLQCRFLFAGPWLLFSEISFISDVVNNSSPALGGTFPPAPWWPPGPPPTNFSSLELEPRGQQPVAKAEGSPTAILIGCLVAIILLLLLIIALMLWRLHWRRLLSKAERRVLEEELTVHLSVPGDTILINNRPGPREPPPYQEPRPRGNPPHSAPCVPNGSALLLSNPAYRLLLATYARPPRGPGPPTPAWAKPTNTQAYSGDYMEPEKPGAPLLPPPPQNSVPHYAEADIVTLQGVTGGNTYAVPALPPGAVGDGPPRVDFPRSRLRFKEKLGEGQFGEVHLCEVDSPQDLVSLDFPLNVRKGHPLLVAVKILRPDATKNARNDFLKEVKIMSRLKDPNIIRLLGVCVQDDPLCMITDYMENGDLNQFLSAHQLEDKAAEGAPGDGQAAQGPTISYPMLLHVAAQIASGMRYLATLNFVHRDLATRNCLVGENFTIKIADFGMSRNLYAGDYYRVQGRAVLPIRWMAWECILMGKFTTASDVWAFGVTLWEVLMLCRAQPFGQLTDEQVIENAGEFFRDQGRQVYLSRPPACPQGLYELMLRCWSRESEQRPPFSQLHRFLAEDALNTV
ULK1, sequence (O75385 whole entry): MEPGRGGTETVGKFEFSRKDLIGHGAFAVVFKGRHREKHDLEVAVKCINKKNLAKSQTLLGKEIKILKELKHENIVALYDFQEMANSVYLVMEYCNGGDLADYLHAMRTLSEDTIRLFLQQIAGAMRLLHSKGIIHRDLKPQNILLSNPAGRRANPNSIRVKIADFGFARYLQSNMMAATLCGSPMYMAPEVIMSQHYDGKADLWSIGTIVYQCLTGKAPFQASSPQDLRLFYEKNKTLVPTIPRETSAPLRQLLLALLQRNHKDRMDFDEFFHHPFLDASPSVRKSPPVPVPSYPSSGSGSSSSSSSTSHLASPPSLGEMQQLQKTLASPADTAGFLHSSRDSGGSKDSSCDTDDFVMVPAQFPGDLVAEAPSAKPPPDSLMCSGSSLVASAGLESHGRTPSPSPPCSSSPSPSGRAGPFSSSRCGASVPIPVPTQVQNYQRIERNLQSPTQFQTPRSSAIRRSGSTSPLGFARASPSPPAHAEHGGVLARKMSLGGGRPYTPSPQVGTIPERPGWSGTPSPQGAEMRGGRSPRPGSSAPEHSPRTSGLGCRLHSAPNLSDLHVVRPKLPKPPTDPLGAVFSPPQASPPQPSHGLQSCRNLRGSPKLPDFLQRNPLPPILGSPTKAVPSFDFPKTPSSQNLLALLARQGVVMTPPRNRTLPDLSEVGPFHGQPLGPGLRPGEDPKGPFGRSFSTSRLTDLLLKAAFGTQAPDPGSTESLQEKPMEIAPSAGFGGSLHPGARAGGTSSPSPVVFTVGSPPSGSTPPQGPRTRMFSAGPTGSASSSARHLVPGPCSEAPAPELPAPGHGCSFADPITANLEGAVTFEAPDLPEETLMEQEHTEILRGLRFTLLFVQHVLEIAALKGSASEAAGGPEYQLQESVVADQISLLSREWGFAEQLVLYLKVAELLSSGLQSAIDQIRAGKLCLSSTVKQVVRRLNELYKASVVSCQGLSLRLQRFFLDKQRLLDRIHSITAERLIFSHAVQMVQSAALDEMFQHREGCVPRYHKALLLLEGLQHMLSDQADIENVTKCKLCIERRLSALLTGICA
CDKL2, sequence (Q92772 whole entry): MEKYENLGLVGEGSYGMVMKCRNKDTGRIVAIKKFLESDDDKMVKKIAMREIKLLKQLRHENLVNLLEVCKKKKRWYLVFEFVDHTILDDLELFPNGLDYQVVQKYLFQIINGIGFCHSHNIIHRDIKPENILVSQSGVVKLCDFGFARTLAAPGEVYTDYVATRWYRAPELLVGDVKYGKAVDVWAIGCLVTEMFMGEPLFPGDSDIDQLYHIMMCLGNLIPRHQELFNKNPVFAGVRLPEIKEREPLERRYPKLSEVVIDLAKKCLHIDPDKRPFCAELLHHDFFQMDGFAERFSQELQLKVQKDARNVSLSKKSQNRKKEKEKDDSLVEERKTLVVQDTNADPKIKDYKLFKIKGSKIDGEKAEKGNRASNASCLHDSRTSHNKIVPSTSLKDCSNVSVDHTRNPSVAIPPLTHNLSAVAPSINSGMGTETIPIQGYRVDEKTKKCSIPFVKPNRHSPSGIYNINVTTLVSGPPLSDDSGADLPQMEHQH
CLK4, sequence (Q9HAZ1 whole entry): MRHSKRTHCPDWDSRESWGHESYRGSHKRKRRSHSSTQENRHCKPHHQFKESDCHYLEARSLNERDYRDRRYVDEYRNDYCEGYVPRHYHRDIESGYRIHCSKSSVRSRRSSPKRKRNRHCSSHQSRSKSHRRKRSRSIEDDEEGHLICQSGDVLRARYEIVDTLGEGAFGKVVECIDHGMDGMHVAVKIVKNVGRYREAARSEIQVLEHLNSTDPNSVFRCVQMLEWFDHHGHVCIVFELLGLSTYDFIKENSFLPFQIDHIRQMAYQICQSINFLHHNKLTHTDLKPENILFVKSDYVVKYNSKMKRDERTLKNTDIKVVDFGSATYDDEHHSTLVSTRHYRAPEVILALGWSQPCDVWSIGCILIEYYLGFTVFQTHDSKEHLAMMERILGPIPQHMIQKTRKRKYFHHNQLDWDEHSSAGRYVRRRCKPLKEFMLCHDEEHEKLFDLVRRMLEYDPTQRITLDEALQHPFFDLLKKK
ACVR2A, sequence (P27037 20-513): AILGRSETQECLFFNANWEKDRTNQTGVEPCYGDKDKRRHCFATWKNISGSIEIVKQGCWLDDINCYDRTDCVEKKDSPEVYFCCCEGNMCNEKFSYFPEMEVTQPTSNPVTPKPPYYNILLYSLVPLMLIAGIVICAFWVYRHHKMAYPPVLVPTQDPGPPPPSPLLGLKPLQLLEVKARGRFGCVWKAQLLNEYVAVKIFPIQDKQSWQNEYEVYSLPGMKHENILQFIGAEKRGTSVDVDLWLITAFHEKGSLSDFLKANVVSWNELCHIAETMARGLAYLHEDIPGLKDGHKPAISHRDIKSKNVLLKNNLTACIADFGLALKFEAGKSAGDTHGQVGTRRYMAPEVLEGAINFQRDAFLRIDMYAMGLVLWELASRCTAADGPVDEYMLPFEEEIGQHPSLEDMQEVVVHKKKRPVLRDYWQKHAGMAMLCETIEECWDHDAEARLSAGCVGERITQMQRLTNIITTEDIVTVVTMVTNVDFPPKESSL
CAMK2D, sequence (Q13557 whole entry): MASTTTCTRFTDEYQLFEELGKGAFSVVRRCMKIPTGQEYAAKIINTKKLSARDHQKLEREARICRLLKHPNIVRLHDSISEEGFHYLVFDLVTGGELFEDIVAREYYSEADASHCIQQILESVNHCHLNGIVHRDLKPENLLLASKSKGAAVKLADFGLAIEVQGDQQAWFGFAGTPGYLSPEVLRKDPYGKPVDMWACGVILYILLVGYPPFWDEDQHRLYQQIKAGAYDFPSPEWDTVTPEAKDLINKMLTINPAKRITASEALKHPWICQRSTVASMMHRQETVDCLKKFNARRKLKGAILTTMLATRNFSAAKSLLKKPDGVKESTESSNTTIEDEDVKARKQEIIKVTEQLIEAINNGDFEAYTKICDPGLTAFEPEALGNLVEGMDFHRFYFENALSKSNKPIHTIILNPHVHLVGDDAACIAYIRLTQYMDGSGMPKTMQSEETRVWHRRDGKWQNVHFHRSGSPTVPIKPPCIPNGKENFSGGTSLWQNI
MKNK2, sequence (Q9HBH9 whole entry): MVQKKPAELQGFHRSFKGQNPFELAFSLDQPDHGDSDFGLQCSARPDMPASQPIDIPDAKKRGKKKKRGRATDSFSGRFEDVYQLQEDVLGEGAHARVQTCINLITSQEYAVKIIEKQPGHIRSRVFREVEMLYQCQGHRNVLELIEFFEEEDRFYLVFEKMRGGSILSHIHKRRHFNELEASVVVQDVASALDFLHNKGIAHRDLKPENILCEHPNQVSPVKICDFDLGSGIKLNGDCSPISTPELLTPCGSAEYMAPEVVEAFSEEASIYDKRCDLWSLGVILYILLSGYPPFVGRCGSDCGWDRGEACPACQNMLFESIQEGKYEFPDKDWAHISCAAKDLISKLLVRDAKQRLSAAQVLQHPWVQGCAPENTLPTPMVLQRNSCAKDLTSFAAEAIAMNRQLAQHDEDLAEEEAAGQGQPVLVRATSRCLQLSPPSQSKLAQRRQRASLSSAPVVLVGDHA
p38-alpha (MAPK14), sequence (Q16539 whole entry): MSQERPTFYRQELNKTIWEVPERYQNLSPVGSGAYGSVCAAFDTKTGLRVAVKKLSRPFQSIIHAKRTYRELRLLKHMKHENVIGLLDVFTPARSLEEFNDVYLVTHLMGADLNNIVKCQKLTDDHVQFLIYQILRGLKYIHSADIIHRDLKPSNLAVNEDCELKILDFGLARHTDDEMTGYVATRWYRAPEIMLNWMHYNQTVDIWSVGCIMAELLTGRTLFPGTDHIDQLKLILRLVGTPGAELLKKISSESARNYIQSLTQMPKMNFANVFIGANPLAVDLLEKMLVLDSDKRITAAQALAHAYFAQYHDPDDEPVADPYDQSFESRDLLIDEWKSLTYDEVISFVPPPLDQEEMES

In the case of `CN1CCN(C(=O)c2ccc3cc(CCNc4ccnc5ccc(C#N)cc45)ccc3c2)CC1` [compound 6148, 4-((2-(6-(4-methylpiperazine-1-carbonyl)naphthalen-2-yl)ethyl)amino)quinoline-6-carbonitrile], the remaining binding at 2 µM (p38-alpha (MAPK14)) was 84%, the remaining binding at 2 µM (TIE2 (TEK)) was 89% and the remaining binding at 2 µM (CAMK2D) was 94%. The remaining binding at 2 µM (TRPM6) was 88%, the remaining binding at 2 µM (RET) was 100% and the remaining binding at 2 µM (CDKL2) was 75%. For the same compound, the remaining binding at 2 µM [1] was 89%, the remaining binding at 2 µM (LRRK2) was 85% and the remaining binding at 2 µM (PRKCD) was 83%. For the same compound, the remaining binding at 2 µM (CLK4) was 69%, the remaining binding at 2 µM (PIK4CB (PI4KB)) was 51% and the remaining binding at 2 µM (TAK1 (MAP3K7)) was 63%. The remaining binding at 2 µM (FGFR1) was 85%, the remaining binding at 2 µM (FLT3) was 89% and the remaining binding at 2 µM [2] was 93%. The remaining binding at 2 µM (MAST1) was 96%, the remaining binding at 2 µM (PIK3CG) was 76% and the remaining binding at 2 µM [3] was 83%. It also gave a remaining binding at 2 µM (QSK (KIAA0999)) of 55%, a remaining binding at 2 µM (ACVR2A) of 89% and a remaining binding at 2 µM (SIK2) of 100%. The pIC50 ([4]; 293/NFkB-luc, read-out: IC50 (293-NFKB-Luc)) was 7.26, the pIC50 ([4]; HEK293, parental 293-derived reporter cell line, read-out: HEK293 NFKB CDK8 Reporter IC50) was 7.19 and the remaining binding at 2 µM (MKNK2) was 71%. For the same compound, the remaining binding at 2 µM (CDC2L2) was 97%, the remaining binding at 2 µM (ERK1 (MAPK3)) was 95% and the remaining binding at 2 µM (EPHB4) was 89%. The remaining binding at 2 µM (PKN2) was 89%, the remaining binding at 2 µM (FLT3(D835V)) was 67% and the remaining binding at 2 µM [5] was 56%. The remaining binding at 2 µM (ULK1) was 66%, the remaining binding at 2 µM (PRKCE) was 98% and the remaining binding at 2 µM (DDR1) was 100%. It also gave a remaining binding at 2 µM [6] of 62%, a remaining binding at 2 µM (FLT3(N841I)) of 100% and a remaining binding at 2 µM (PRKCQ) of 100%. The remaining binding at 2 µM (MST1 (STK4)) was 95%, the remaining binding at 2 µM (MELK) was 97% and the “Metabolic conversion rate in cultured hepatocytes” value [7] was “greatly decreased relative to Senexin B”. The remaining binding at 2 µM [8] was 96%.
